This is an account of results in patent US10350210B2, “EGFR and ALK dual inhibitor” (PRECEDO PHARMACEUTICALS CO., LTD, priority 2015, dated 2019).

Assay [1] deals with PC-9. The assay is described as follows: Growth of cancer cells (Cell Titer-Glo viability), PC-9. It is filed as cell-based. Particulars: Homo sapiens; PC-9 (EGFR delE746_A750 mutant), 72 hrs. The method, boiled down:
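Cells are counted as viable by CellTiter-Glo chemiluminescence. Murine BaF3 lines depend on a stably transfected TEL-fused kinase after IL-3 withdrawal, and the NSCLC lines express mutant EGFR.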
A general note: In ATP-based viability assays light output follows the ATP content of the culture.

The subject of assay [2] is NCI-H3122. Put plainly: Effect on cell cycle (PI staining, flow cytometer), NCI-H3122. Format: cell-based, human. Particulars: NCI-H3122 (ALK gene), 24 hours. An excerpt: In order to study which growth phase the cell was halted after administration of the drugs, five cell lines including non-small cell lung cancer cell line A549 (expressing wild-type EGFR gene), non-small cell lung cancer cell line H1975 (expressing EGFR L858R/T790M double mutant gene), non-small cell Lung cancer cell line PC-9 (expressing EGFR delE746_A750 mutant gene), non-small cell lung cancer cell line H3255 (expressing EGFR L858R mutant gene) and non-small cell lung cancer cell NCI-H3122 (expressing ALK gene) were tested for effect of Compound 1 on cell cycle distribution. Two cell lines including non-small cell lung cancer cell NCI-H3122 (expressing ALK gene) and non-small cell lung cancer cell H1975 (expressing EGFR L858R/T790M double mutant gene) were tested for effect of Compound 10 on cell cycle distribution. […]
On the technique in general: Flow cytometry measures light scatter and fluorescence of single cells or particles in a stream.

Assay [3] has as its system H3122. Put plainly: Effect on cell apoptosis (Western Blot, PARP and Caspase 3 cleavage), H3122. It is filed as cell-based, human. Particulars: H3122 (ALK gene), 24 hours. From the text: In order to confirm whether the death of cells is through apoptosis or necrosis after administration of drugs, non-small cell lung cancer cell A549 (expressing wild-type EGFR gene), non-small cell lung cancer cell line H1975 (expressing EGFR L858R/T790M double mutant gene), non-small cell lung cancer cell line H3255 (expressing EGFR L858R mutant gene), non-small cell lung cancer cell line H3122 (expressing ALK gene) cell line, and non-small cell lung cancer cell line PC-9 (expressing EGFR delE746_A750 mutant gene) were tested for effect of Compound 1 on cleavage of poly ADP-ribose polymerase PARP which is a DNA repair enzyme and Caspase 3, which were closely related to cell apoptosis. […] Western Blot was used to detect the effect of various concentrations of drugs at various time points on cleavage of poly ADP-ribose polymerase PARP which is a DNA repair enzyme and Caspase 3.
(In general: Immunoblotting shows a protein as a band on a membrane.)

Regarding `C=CC(=O)Nc1cc(Nc2ncc(Cl)c(Nc3ccccc3S(=O)(=O)C(C)C)n2)c(OC)cc1N1CCN(CC)CC1` [Compound 1, N-(5-(5-chloro-4-(2-(isopropylsulfonyl)phenylamino)pyrimidin-2-ylamino)-2-(4-ethylpiperazin-1-yl)-4-methoxyphenyl)acrylamide], halving of growth in assay [1] (GI50) required 0.7 nM. For the same compound, the “effect on cell cycle distribution” value in assay [2] is reported as “halt the cells in G0-G1 phase”. Further, the “concentration at which evident cleavage of PARP and Caspase 3 could be observed” value in assay [3] is 0.03 µM.
The like results for `C=CC(=O)Nc1cc(Nc2ncc(Cl)c(Nc3ccccc3S(=O)(=O)C(C)C)n2)c(OC)cc1N1CCCN(C)CC1` [Compound 10, N-(5-(5-chloro-4-(2-(isopropylsulfonyl)phenylamino)pyrimidin-2-ylamino)-4-methoxy-2-(4-methyl-1,4-homopiperazin-1-yl)phenyl)acrylamide] were, in that order, 15 nM, “halt the cells in G0-G1 phase” and 1 µM.
